# Results taken from patent publication US10488417B2, “Compounds for use as imaging agents” (United Arab Emirates University, priority 2014, dated 2019).
# What was measured:
# [1] = biological target: T1, α-synuclein (Homo sapiens, UniProt P37840); assay: α-synuclein fibrillation, Thioflavin-T (Th-T) binding assay; type: biochemical; conditions: 25 μM α-synuclein; for inhibition at 50 µM: compound 50 μM
# T1 construct: GST (N, cleaved yes); made in house; host or cells: E. coli BL21
# Experimental: The protein purity was estimated to be >95% using an SDS gel. Ginsenoside, Rb1, stock solutions (10 mM) were prepared in 100% DMSO, and the final amount of DMSO in the sample solutions was 1%. Samples of 25 μM α-synuclein in PBS were aged alone or with Rb1 at various molar ratios (Rb1:α-synuclein molar ratios of 4:1, 2:1 and 1:1). The samples were placed in 1.5 ml sterile polypropylene tubes, drops of mineral oil were added to prevent sample evaporation, and the tubes were then sealed with parafilm and incubated at 37° C. for 5 days with continuous shaking at 800 rpm in a Thermomixer (Eppendorf). Samples were collected at the indicated time points, and a Thioflavin-T assay was performed immediately at each time point, while the rest of the samples were stored at −80° C. until needed for further analyses.
# α-Synuclein fibril formation was monitored by Th-T binding assay. Th-T is a fluorescent dye that interacts with fibrils containing a β-sheet structure. A total of 10 μL of each sample was diluted in 40 μL of Th-T in PBS. Fluorescence was then measured in a 384-well, untreated black micro-well plate (Nunc, Denmark) using a microplate reader (Victor X3 2030, Perkin Elmer) with the excitation and emission wavelengths set at 450 and 486 nm, respectively. To allow for background fluorescence, the fluorescence intensity of a blank PBS solution was subtracted from all readings.
# α-Synuclein solution at a concentration of 25 μM was incubated at 37° C. with continuous shaking for 5 days, leading to fibril formation, which was monitored by Th-T fluorescence at regular time intervals. α-Synuclein was incubated with each of Gn Rb1, salvianolic acid B and dihydromyricetin at molar ratios of 4:1, 2:1 and 1:1 (molar ratio Compound: α-synuclein) with a constant α-synuclein concentration of 25 μM.
# [2] = biological target: T2, α-synuclein oligomers (Homo sapiens, UniProt P37840); assay: Binding to α-synuclein oligomers: SEC fractions P1-P3 with UV scanning; conditions: compound: α-synuclein 4:1, 100 μM α-synuclein, 5 days
# T2 construct: GST (N, cleaved yes); made in house; host or cells: E. coli BL21
# Experimental: SEC was carried out using an AKTA FPLC system (GE Healthcare-Sweden) and a superdex 200 column at 4° C., in order to separate the oligomers generated from the aggregation of α-synuclein with the compounds (compound: α-synuclein molar ratio of 4:1). Monomeric α-synuclein at a concentration of 100 μM was aggregated in the presence of the compounds for 5 days as described above. At the end of the aggregation process, the sample was centrifuged for 45 min at 14,000×g at 4° C. generating a supernatant free from insoluble material. Prior to injecting 80% of the generated supernatant, the column was thoroughly equilibrated with SEC running buffer (1×PBS, pH 7.4) and the flow rate was set to 0.1 ml/min (0.5 ml/fraction). The elution of α-synuclein was monitored at absorbance wavelengths of 215 nm, 254 nm, and 280 nm. To determine the elution time of monomeric α-syn, molecular weight standards (ferritin 440 kDa, aldolase 171 kDa, abmumin 68 kDa and chymotrypsinogenA 25 kDa) and monomeric α-synuclein were co-injected into the column and eluted at the same conditions mentioned above.
# For the experiments with salvianolic acid B and dihydromyricetin the fractions eluting between 7-8 ml CV were combined and labeled as oligomers (sample P1), and fractions eluting between 12-14 ml CV were combined and labeled as oligomers (sample P2), whereas the fractions eluting in the 14-16 ml CV were combined and labeled as monomers (sample P3). […]
# The P1, P2 and P3 samples, representing the oligomeric and monomeric fractions of SEC, were concentrated using a speed vac (CentriVap, Labconco). […] The UV absorbance spectrum was recorded from 200-600 nm in a spectrophotometer (DU-800, Beckman-Coulter) using 10 mm quartz cuvettes (Hellma Analytics-Germany) and employing equal concentrations of the P1, P2 and P3. […]
# [3] = biological target: T3, monomeric α-synuclein (Homo sapiens, UniProt P37840); assay: NMR titration into monomeric α-synuclein; type: binding; conditions: stoichiometries of up to 6:1 compound: α-synuclein, 100 μM α-synuclein
# T3 construct: made in house
# Experimental: For NMR studies, recombinant ^15N-labeled α-synuclein was expressed and purified as previously described, resuspended in PBS buffer at pH 6.6. Two-dimensional ^1H-^15N HQSC spectra were acquired for α-synuclein at 100 μM concentration in the absence of Gn Rb1 and in the presence of increasing Gn Rb1: α-synuclein stoichiometries of 1:1, 4:1 and 6:1. Data were collected on a Bruker 900 MHz spectrometer equipped with a cold probe.
# [4] = biological target: T4, preformed α-synuclein fibrils (Homo sapiens, UniProt P37840); assay: α-synuclein disaggregation assay on preformed fibrils (Th-T); type: biochemical; conditions: 25 μM preformed fibrils; for effect on preformed α-synuclein fibrils (Th-T counts): ratios 6:1, 4:1, 2:1, 48 hours, 37° C.
# T4 construct: GST (N, cleaved yes); made in house; host or cells: E. coli BL21
# Experimental: α-Synuclein solution in PBS (pH 7.4) was aggregated at a concentration of 25 μM as indicated above. The resulting aggregated α-synuclein was incubated either alone or with Gn Rb1 or dihydromyricetin at various molar ratios (compound: α-synuclein molar ratios of 6:1, 4:1 and 2:1). It should be noted that for the purpose of the experiment, the concentration of α-synuclein taken into account was the concentration of fresh α-synuclein. The samples were incubated at 37° C. for 48 hours on a thermomixer with continuous shaking at 800 rpm. Samples were collected at regular time points, and Th-T fluorescence was measured immediately.
# Due to their high efficiency to inhibit α-synuclein fibrillation, Gn Rb1 and dihydromyricetin were assessed for their effectiveness on reversing fibrillation. 25 μM of preformed α-synuclein fibrils were incubated at 37° C. in the presence of Gn Rb1 or dihydromyricetin at varying molar ratios (compound: α-synuclein of 6:1, 4:1 and 2:1) for a period of 48 hours. By measuring the Th-T fluorescence counts (FIGS. 7A-7B), the fibril content was estimated at different time points.
# [5] = after 5 days of incubation, read-out: inhibition of α-synuclein fibrillation (Th-T fluorescence)
SMILES,"inhibition percentage of α-synuclein fibrillation (Th-T fluorescence) ([1]; 2 days of incubation, 37° C., all tested concentrations)","reduction of α-synuclein fibrillation (Th-T fluorescence) ([1]; after 5 days of incubation, all tested concentrations)","SEC samples in which compound was detected by UV absorbance (P1, P2 oligomers; P3 monomers) [2]",interaction with monomeric α-synuclein (two-dimensional NMR) [3],effect on preformed α-synuclein fibrils (Th-T counts) [4],"Th-T counts as fraction of the Th-T counts of the control ([4]; after 4 hours of incubation, ratios 6:1, 4:1, 2:1)","inhibition of α-synuclein fibrillation (Th-T fluorescence) ([1]; compound 25 μM, after 5 days of incubation)","inhibition at 50 µM [1, 5]","inhibition at 100 µM ([1]; compound 100 μM, after 5 days of incubation, read-out: inhibition of α-synuclein fibrillation (Th-T fluorescence))","inhibition at 25 µM ([1]; compound 25 μM, after 5 days of incubation, read-out: inhibition of α-synuclein fibrillation (Th-T fluorescence))","inhibition of α-synuclein fibrillation (Th-T fluorescence) ([1]; compound 100 μM, after 5 days of incubation)"
"CC(C)=CCC[C@](C)(O[C@@H]1O[C@H](CO[C@@H]2O[C@H](CO)[C@@H](O)[C@H](O)[C@H]2O)[C@@H](O)[C@H](O)[C@H]1O)[C@H]1CC[C@]2(C)[C@@H]1[C@H](O)C[C@@H]1[C@@]3(C)CC[C@H](O[C@@H]4O[C@H](CO)[C@@H](O)[C@H](O)[C@H]4O[C@@H]4O[C@H](CO)[C@@H](O)[C@H](O)[C@H]4O)C(C)(C)[C@@H]3CC[C@]12C [Gn Rb1, ginsenoside Rb1]",approximately 90%,approximately 80%,detected only in the oligomeric P2 samples,does not interact significantly with monomeric α-synuclein,disaggregated in a dose-dependent fashion,⅕,–,–,–,–,–
O=C1c2c(O)cc(O)cc2O[C@H](c2cc(O)c(O)c(O)c2)[C@H]1O [dihydromyricetin],–,–,detected in both P2 and P3,–,disaggregated preformed α-synuclein fibrils in a dose-dependent fashion,–,failed to inhibit fibrillation,40%,80%,–,–
O=C(/C=C/c1ccc(O)c2c1[C@H](C(=O)O[C@H](Cc1ccc(O)c(O)c1)C(=O)O)[C@@H](c1ccc(O)c(O)c1)O2)O[C@H](Cc1ccc(O)c(O)c1)C(=O)O [salvianolic acid B],–,–,detected in the P2 sample,–,–,–,–,~80%,–,~35%,completely abolished
